Publication PMC7883873, “Discovery of New Catalytic Topoisomerase II Inhibitors for Anticancer Therapeutics” (Frontiers in Oncology, 2021)

Legend:
[1] = tested on: GFP-AR transfected DU145 cells; assay: AR subcellular localization by microscopy; type: cell-based; settings: 20 µM, 24 h
[2] = target: T1, TOP2A (Homo sapiens, UniProt P11388); assay: K-DNA decatenation assay; type: biochemical; set-up: full-length human TOP2A and TOP2B protein (TopoGEN and Inspiralis respectively); purchased TopoGEN TG1001 (human TOP2 assay kit)
T1 sequence (P11388 whole entry): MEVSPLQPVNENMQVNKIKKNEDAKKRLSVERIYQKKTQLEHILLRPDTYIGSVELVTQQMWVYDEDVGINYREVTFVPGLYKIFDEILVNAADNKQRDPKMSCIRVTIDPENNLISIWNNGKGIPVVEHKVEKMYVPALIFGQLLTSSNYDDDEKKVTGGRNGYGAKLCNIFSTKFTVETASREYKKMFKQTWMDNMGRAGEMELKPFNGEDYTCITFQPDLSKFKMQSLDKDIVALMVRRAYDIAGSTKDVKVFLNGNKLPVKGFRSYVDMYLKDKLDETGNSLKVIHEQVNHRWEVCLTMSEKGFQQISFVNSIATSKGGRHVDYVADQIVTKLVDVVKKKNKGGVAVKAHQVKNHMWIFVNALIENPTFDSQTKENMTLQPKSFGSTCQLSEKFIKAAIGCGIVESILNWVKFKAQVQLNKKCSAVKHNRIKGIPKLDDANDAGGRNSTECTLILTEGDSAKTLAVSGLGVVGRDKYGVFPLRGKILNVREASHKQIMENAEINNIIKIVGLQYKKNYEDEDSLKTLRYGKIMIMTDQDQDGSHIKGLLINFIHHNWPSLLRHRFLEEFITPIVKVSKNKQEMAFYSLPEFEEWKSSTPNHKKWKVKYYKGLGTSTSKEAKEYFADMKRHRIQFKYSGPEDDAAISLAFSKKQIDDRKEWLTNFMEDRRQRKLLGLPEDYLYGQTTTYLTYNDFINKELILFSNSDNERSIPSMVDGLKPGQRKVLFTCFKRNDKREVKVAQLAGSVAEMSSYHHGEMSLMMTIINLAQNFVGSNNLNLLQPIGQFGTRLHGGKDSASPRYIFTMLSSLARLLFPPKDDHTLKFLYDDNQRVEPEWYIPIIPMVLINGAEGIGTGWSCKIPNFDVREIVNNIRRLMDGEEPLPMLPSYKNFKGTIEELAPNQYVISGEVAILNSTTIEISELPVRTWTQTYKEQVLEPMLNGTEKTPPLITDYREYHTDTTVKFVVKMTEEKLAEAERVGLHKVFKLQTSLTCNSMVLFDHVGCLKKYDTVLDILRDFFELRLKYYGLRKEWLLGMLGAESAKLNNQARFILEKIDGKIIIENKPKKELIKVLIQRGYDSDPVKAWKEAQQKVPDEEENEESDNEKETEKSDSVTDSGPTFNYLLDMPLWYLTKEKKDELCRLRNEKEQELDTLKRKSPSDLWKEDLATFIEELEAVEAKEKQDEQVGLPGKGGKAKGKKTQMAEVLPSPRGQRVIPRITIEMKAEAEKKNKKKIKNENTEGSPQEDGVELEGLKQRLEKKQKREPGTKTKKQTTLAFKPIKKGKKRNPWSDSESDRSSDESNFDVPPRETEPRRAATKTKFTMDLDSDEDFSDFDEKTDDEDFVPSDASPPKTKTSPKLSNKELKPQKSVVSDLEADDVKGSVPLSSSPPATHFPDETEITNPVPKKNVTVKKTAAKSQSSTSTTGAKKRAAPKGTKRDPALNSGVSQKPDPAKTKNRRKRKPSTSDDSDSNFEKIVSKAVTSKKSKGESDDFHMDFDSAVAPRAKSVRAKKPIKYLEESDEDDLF
Protocol: The human TOP2 assay kit (#TG1001, TopoGEN, Buena Vista, CO) and TOP2B (HTB205, Inspiralis, UK) were used for K-DNA decatenation assays. […] The reaction was incubated at 37C for 2 h after which 4 µl stop solution (5× buffer is 5% Sarkosyl, 0.125% bromophenol blue, 25% glycerol) was added. The reaction was resolved by electrophoresis on a 0.8% agarose gel at 60 V and stained with 0.5 µg/ml ethidium bromide for 15 min. DNA bands were visualized using a gel imager (Gel Doc™ EZ System) and quantified using the Image Studio™ Lite Quantification Software.

[3] = target: T1, TOP2A; assay: DNA cleavage assay; type: biochemical; set-up: full-length human TOP2A and TOP2B protein (TopoGEN and Inspiralis respectively); purchased TopoGEN TG1001 (human TOP2 assay kit); settings: co-treatment with 200 µM etoposide; 1, 100, 200 µM
Protocol: The reactions were incubated in 37C for 30 min and stopped by adding 2 µl of 10% SDS and 1 µl of 250 mM of EDTA, followed by the addition of 50 µg/ml of proteinase K at 45C for 30 min. The reaction was then resolved by electrophoresis on a 1% agarose gel containing […] ethidium bromide in TAE buffer at 60 V. DNA bands were visualized using a gel imager (Gel Doc™ EZ System) and quantified by using the Image Studio™ Lite Quantification Software.

[4] = target: T2, full-length human TOP2B (Homo sapiens, UniProt Q02880); assay: EMSA with full-length protein; type: binding; settings: 200 µM; 2 µM protein, 300 nM 5ZRF oligo
T2 construct: full-length human TOP2A and TOP2B protein (TopoGEN and Inspiralis respectively); purchased Inspiralis HTB205
T2 sequence (Q02880 whole entry): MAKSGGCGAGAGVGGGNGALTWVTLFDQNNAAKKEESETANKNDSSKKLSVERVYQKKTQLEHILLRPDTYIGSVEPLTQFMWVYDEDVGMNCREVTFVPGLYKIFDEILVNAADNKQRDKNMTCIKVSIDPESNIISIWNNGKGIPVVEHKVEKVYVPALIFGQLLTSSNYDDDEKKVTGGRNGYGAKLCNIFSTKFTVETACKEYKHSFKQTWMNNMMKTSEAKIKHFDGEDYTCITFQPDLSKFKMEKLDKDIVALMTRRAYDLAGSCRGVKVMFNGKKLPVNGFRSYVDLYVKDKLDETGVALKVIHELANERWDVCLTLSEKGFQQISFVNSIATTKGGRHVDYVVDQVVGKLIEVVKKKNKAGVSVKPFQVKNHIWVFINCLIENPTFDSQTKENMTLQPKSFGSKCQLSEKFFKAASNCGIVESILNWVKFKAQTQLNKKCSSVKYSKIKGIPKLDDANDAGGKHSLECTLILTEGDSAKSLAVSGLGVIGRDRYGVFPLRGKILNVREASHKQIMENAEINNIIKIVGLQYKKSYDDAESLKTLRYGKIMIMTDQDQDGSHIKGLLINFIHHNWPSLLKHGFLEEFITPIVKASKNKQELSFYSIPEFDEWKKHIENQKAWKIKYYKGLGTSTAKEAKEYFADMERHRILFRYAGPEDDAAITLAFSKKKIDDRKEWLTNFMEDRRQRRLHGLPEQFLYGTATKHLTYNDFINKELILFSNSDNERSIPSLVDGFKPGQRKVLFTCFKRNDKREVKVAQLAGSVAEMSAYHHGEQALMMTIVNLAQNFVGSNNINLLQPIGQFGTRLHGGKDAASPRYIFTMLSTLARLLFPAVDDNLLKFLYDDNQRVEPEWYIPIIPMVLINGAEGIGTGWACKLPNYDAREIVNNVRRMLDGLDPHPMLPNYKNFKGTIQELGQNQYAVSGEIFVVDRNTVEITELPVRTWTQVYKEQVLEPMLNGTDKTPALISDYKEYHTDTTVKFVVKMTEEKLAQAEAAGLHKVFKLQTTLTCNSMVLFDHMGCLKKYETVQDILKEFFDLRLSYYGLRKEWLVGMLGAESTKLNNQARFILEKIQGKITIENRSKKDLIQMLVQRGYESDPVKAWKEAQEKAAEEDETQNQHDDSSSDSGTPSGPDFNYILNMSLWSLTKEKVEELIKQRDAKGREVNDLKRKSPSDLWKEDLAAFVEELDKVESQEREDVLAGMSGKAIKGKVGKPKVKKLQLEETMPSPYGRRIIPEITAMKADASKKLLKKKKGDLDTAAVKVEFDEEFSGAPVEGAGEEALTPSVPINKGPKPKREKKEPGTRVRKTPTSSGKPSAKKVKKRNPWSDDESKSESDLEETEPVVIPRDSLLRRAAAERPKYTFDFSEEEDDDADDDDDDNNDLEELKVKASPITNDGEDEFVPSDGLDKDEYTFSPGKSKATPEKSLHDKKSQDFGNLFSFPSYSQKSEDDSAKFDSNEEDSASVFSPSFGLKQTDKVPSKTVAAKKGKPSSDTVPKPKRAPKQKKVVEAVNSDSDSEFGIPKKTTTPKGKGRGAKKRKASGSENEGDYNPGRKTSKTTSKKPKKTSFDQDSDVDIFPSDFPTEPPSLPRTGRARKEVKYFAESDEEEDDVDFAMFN
Protocol: (§1) EMSA followed the standard protocols as we and others described with minor modifications ([54]–[56]). The double-strand DNA oligo, 5ZRF (AGCCGAGCTGCAGCTCGGCT labeled by IRDye700) was purchased from IDT (Coralville, USA). Human TOP2 (431–1193), TOP2A (TopoGEN) or TOP2B (Inspiralis) proteins were incubated with 300 nM of 5ZRF oligo in a standard 20 µl EMSA reaction in a reaction buffer containing 20 mM HEPES-NaOH, pH 7.4, 2 mM DTT, 3 mM MgCl2, 0.05% NP-40, protease inhibitors, and 0.1 µg poly[dI:dC]. After incubation for 30 min at 37C, reactions were loaded onto 4% non-denatured polyacrylamide gel in 0.5× TBE buffer. The DNA oligo bands were visualized by using the Li-Cor Odyssey 9120 Infrared Imaging System.

[5] = target: T3, full-length human TOP2A (Homo sapiens, UniProt P11388); assay: EMSA with full-length protein; type: binding; settings: 200 µM; 2 µM protein, 300 nM 5ZRF oligo
T3 construct: full-length human TOP2A and TOP2B protein (TopoGEN and Inspiralis respectively); purchased TopoGEN TG1001 (human TOP2 assay kit)
T3 sequence (P11388 whole entry): as the sequence (P11388 whole entry) above
Protocol: as §1

[6] = tested on: phospho-H2AXγ expression; assay: Phospho-H2AXγ expression in multiple cancer cell models; type: cell-based; settings: 5 µM, 4 hours
Protocol: Cell proliferation rates were measured by using the CellTitre 96 AqueousOne kit (Promega) and bromodeoxyuridine (BrdU) assay kit (Millipore) according to the manufacturer’s protocol as we have described ([51]). Cytotoxicity was evaluated by using the commercial kit (CAT# 8078, ThermoFisher). Culture media was collected and used to measure lactate dehydrogenase (LDH) levels by a colorimetric method following the manufacture’s protocol (ThermoFisher). Cell cycling was assessed by using BrdU incorporation into S-phase DNA by using the APC BrdU flow kit (BD Pharmingen; Franklin Lakes, New Jersey) according to the manufacturer’s protocol. 1 mM of BrdU was added to cells and incubated for 6 h. Cells were incubated with anti-BrdU antibody and stained with 7-AAD before processing the cells for flow cytometry ([52]). Immunoblotting assays followed the standard protocol as we have reported ([51]–[53]).

[7] = target: TOP2B (Homo sapiens, UniProt Q02880); assay: DNA relaxation assay (supercoiled pHOT-1 plasmid); type: biochemical; set-up: full-length human TOP2A and TOP2B protein (TopoGEN and Inspiralis respectively); purchased Inspiralis HTB205; settings: densitometry of SC bands; read-out: IC50, inhibition of TOP2B plasmid DNA relaxation
Chain of TOP2B (Q02880 whole entry): as the sequence (Q02880 whole entry) above
Protocol: The human TOP2A and TOP2B were used to perform DNA relaxation assays. […] The reaction was incubated at 37C for 2 h and stopped by adding 2 µl of 10% SDS and 1 µl of 250 mM of EDTA, followed by the addition of 50 µg/ml of proteinase K at 45 C for 1 h. The reaction was then resolved by electrophoresis on a 1% agarose gel at 80 V and stained with 0.5 µg/ml ethidium bromide for 15 min. DNA bands were visualized using a gel imager (Gel Doc™ EZ System) and quantified using the Image Studio™ Lite Quantification Software.

[8] = tested on: AR target genes such as PSA and FKBP5; assay: Real-time PCR of AR target genes; type: cell-based; settings: LNCaP and LNCaP95 cells, 0-20 µM, −/+10nM DHT

SMILES: O=C(Nc1ccc(Nc2ccccc2)cc1)c1ccc[nH]c1=S [T60]
- Nuclear localization of GFP-AR, DU145 [1]: reduced nuclear localization
- Inhibition of TOP2A mediated K-DNA decatenation ([2]; Figure 3A): inhibited
- IC50 ([2]; densitometry of D-DNA bands, read-out: IC50, inhibition of TOP2A K-DNA decatenation): ~0.3 µM
- Prevention of etoposide-induced DNA cleavage, TOP2A [3]: prevented
- Interruption of mobility retarded band, full-length TOP2B [4]: interrupted
- Interruption of mobility retarded band, full-length TOP2A [5]: interrupted
- DNA damage (phospho-H2AXγ expression) in all cell models [6]: not accompanied by DNA damage
- IC50 [7]: ~8.9 µM
- mRNA expression of AR target genes (PSA, FKBP5) [8]: inhibited mRNA expression of AR target genes
